Experimental data taken from ChEMBL document CHEMBL1201862, “PubChem BioAssay data set” (2004).
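96-well plates; 48 h exposure; 5 concentrations. Endpoints by linear interpolation between flanking doses. Not reached: highest tested concentration assigned. GI50 = concentration required for 50% inhibition of growth.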 The source made the active and inactive calls. Rule as the data show it: active = GI50 up to about 1.1 µM and inactive = higher.

Experiments:
Test in all cases: DTP human tumour cell line panel, 48 h
[1] = tested on: RXF 393
[2] = tested on: OVCAR-4
[3] = tested on: LOX IMVI
[4] = tested on: NCI-H522
[5] = tested on: TK-10
[6] = tested on: SF-268
[7] = tested on: EKVX
[8] = tested on: SNB-19
[9] = tested on: HCC 2998
[10] = tested on: MDA-MB-231
[11] = tested on: A498
[12] = tested on: K562
[13] = tested on: COLO 205
[14] = tested on: HOP-92
[15] = tested on: UO-31
[16] = tested on: OVCAR-8
[17] = tested on: HCT-116
[18] = tested on: IGROV-1
[19] = tested on: HT-29
[20] = tested on: DMS-273

Measured: GI50

Brc1ccc2c(-c3nc(-c4c[nH]c5ccccc45)cs3)c[nH]c2c1
inactive: [1] 17.6 µM | [2] > 53.5 µM | [3] 10.4 µM | [4] 48 µM | [5] 12.7 µM | [6] > 56.8 µM | [7] 12.7 µM | [8] 41.9 µM | [9] 24 µM | [10] 47.1 µM | [11] 22.7 µM | [12] 13.1 µM | [13] 19.4 µM | [14] 43.1 µM | [15] 19.5 µM | [16] 36.4 µM | [17] 23.8 µM | [18] 30.5 µM | [19] 38.6 µM

O=c1cc(O)cc2n1CCC2
inactive: [1] > 100 µM | [3] > 100 µM | [20] > 100 µM | [4] > 100 µM | [5] > 100 µM | [6] > 100 µM | [7] > 100 µM | [8] > 100 µM | [9] > 100 µM | [11] > 100 µM | [12] > 100 µM | [13] > 100 µM | [15] > 100 µM | [16] > 100 µM | [17] > 100 µM | [18] > 100 µM | [19] > 100 µM

COC(=O)/C(=N\NC(N)=O)C(C(=O)C(=O)Nc1ccccc1C(=O)OC)c1nc2ccc(C(=O)c3ccccc3)cc2nc1O (stereo not given)
inactive: [2] > 100 µM | [3] > 100 µM | [20] > 100 µM | [4] > 100 µM | [5] > 100 µM | [6] > 100 µM | [7] > 100 µM | [8] > 100 µM | [9] > 100 µM | [11] > 100 µM | [12] > 100 µM | [14] > 100 µM | [15] > 100 µM | [16] > 100 µM | [17] > 100 µM | [18] > 100 µM | [19] > 100 µM

COc1ccc(/C(=N\NC(=O)C(=O)NN)C(c2ccc(OC)cc2)C2(O)C(=O)Nc3ccccc32)cc1 (stereo not given)
inactive: [20] > 100 µM | [4] 28.1 µM | [5] 69 µM | [6] 55.2 µM | [7] > 100 µM | [8] 53.3 µM | [11] 48.8 µM | [12] 26.7 µM | [13] > 100 µM | [14] 97.1 µM | [15] 27.6 µM | [16] > 100 µM | [17] > 100 µM | [18] > 100 µM | [19] 14.5 µM

O=C1C2C3CC4C5C3C1C5C1(SCCS1)C42 (stereo not given)
inactive: [1] > 100 µM | [2] > 100 µM | [20] > 100 µM | [4] > 100 µM | [5] > 100 µM | [6] > 100 µM | [8] > 100 µM | [9] > 100 µM | [11] > 100 µM | [12] > 100 µM | [13] > 100 µM | [15] > 100 µM | [16] > 100 µM | [17] > 100 µM | [18] > 100 µM

Cc1ccccc1C(=O)Oc1ccc(O)cc1
inactive: [1] > 100 µM | [2] > 100 µM | [20] > 100 µM | [4] > 100 µM | [5] > 100 µM | [6] > 100 µM | [7] > 100 µM | [8] > 100 µM | [9] > 100 µM | [11] > 100 µM | [12] > 100 µM | [13] > 100 µM | [15] > 100 µM | [16] > 100 µM | [17] > 100 µM | [18] > 100 µM | [19] > 100 µM

N#CCCN(c1ccc(C=O)cc1)S(=O)(=O)c1ccccc1
inactive: [2] > 100 µM | [3] > 100 µM | [20] > 100 µM | [4] > 100 µM | [6] > 100 µM | [7] > 100 µM | [8] > 100 µM | [9] > 100 µM | [11] > 100 µM | [12] > 100 µM | [15] > 100 µM | [16] > 100 µM | [17] > 100 µM | [18] > 100 µM | [19] > 100 µM

CCN(CC)CCNC(=O)c1ccccc1NC(=O)C(=O)Nc1ccccc1C(=O)NCCN(CC)CC
inactive: [2] 64.1 µM | [3] 24.9 µM | [20] > 100 µM | [4] 39.2 µM | [5] > 100 µM | [6] > 100 µM | [7] > 100 µM | [8] > 100 µM | [9] 32.5 µM | [11] > 100 µM | [12] 16.4 µM | [13] 14.1 µM | [14] 31.4 µM | [15] > 100 µM | [16] > 100 µM | [17] 17.5 µM | [18] > 100 µM | [19] 34.6 µM

O=c1cc(-c2ccccc2)c2cc3c(=O)ccoc3cc2o1
inactive: [1] 20 µM | [2] > 100 µM | [3] > 100 µM | [20] > 100 µM | [5] 44.4 µM | [6] > 100 µM | [7] > 100 µM | [8] 64.4 µM | [9] > 100 µM | [11] 15.7 µM | [12] > 100 µM | [13] > 100 µM | [15] > 100 µM | [16] > 100 µM | [17] > 100 µM | [19] > 100 µM

CC(=O)NS(=O)(=O)c1ccc(NCc2cccc3c(=O)c4ccc(Cl)cc4oc23)cc1
inactive: [1] 20.4 µM | [2] > 54.5 µM | [3] > 33.2 µM | [4] 27.4 µM | [5] > 63.4 µM | [6] 30.8 µM | [7] 38.3 µM | [8] 57.3 µM | [9] 38.5 µM | [10] > 59 µM | [11] 41.9 µM | [12] 6.14 µM | [13] > 57.7 µM | [14] 16.6 µM | [15] 25.4 µM | [16] 16.9 µM | [17] > 26.7 µM | [18] 24.8 µM | [19] 31.8 µM

COc1cc(-c2ccc(NC(=O)SCCC(=O)O)cc2OC)ccc1NC(=O)SCCC(=O)O
inactive: [1] > 100 µM | [2] > 100 µM | [3] > 100 µM | [20] > 100 µM | [4] > 100 µM | [5] > 100 µM | [6] > 100 µM | [7] > 100 µM | [8] > 100 µM | [11] > 100 µM | [12] > 100 µM | [13] > 100 µM | [15] > 100 µM | [16] > 100 µM | [17] > 100 µM | [19] > 100 µM

COc1ccc(C2Cc3cc(OC)c(OC)c(OC)c3C2=O)cc1 (stereo not given)
inactive: [2] > 100 µM | [3] > 100 µM | [20] > 100 µM | [5] > 100 µM | [6] > 100 µM | [7] > 100 µM | [8] > 100 µM | [9] > 100 µM | [11] > 100 µM | [12] 80 µM | [13] > 100 µM | [15] 41.8 µM | [16] > 100 µM | [17] > 100 µM | [18] > 100 µM | [19] > 100 µM
